Entries after “also recorded” stand apart in the source; their conditions may differ. Where a name gives a salt, the structure may show the parent alone.
Tests used:
CFU-GM = CFU-GM mobilization to peripheral blood in mice; assay type: in vivo, mouse; details: for CFU-GM / peripheral blood stem cell mobilization with G-CSF: co-administered with G-CSF, 4 days, vs G-CSF alone
Protocol: Since PGE2 increases CXCR4 receptor expression and SDF-1/CXCR4 signalling is important for trafficking and retention of HSPC in the marrow. […] Data are expressed as mean±SEM CFU-GM mobilized per ml of blood for N=3 mice each assayed individually.
Mice were given SC treatments of 150 microgram/kg indomethacin or 150 microgram/kg baicalein (lipoxygenase inhibitor) in gelatin every 48 hours with or without G-CSF for 4 days. CFU-GM mobilization was determined as previously described (Pelus et. al., Experimental Hematology 33 (2005) 295-307). […] Data are expressed as mean±SEM CFU-GM mobilized per ml of blood for N=3 mice each assayed.
Referring now to FIG. 16, mice were given daily, bid SC injections with G-CSF (1 microgram per mouse) or G-CSF+indomethacin (50 microgram per mouse) for 4 days. CFU-GM mobilization was determined as described (Pelus et. al., Experimental Hematology 33 (2005) 295-307).
Mice were given daily, bid SC injections with vehicle or Indomethacin (50 microgram per mouse) for four days. On day 5, mice were given either vehicle or AMD3100 (5 mg/kg). One hour later mice were sacrificed and CFU-GM mobilization was determined as previously described (Pelus et. al., Experimental Hematology 33 (2005) 295-307). […] Data are expressed as mean±SEM, n=5 mice per group, each assayed individually.
Mice were mobilized with G-CSF and CFU-GM in PB was compared to mobilization regimens with G-CSF and the combination of various NSAIDS (Aspirin [COX-1 and COX-2]; Licofelone [COX-2 and 5-LOX]; SC-560 [COX-1]; Valeryl Salicylate [COX-1]; Valdecoxib [COX-2]; NS-398 [COX-2]). […] In order to test the efficacy of two commonly used COX inhibitors, mice were mobilized with G-CSF or the combination of G-CSF and aspirin or ibuprofen (PO., bid, 4 days). CFU-GM was determined as previously described. Referring now to FIG. 28, dose-response analysis of G-CSF+Aspirin and G-CSF+Ibuprofen mobilization of CFU-GM to peripheral blood are present in bar graph form for a control group of mice treated with only G-CSF; for mice treated with G-CSF plus 10, 20 or 40 milligram/kg of aspirin; and for mice treated with G-CSF plus 10, 20 or 40 milligram/kg of ibuprofen. Data are expressed as mean±SEM, n=4 mice per group, each assayed individually.

mobilized PBMC = experiment: Competitive transplantation of mobilized PBMC; assay type: in vivo, mouse; details: co-administered with G-CSF without stagger, 12 weeks post transplant, vs G-CSF alone
Text: Data are expressed as mean±SEM, n=5 mice per group, each assayed individually.

SKL cells = experiment: HSPC homing to bone marrow in vivo; design: species or system mouse; details: 10 microMolar AMD3100, cells incubated before homing assay; dihydrate
Protocol: CD45.2 WBM was labeled with CFSE (Molecular Probes, Eugene, Oreg.) washed and treated on ice with either 1 microMolar dmPGE2 or vehicle. After treatment, cells were washed and 2×10^7 cells transplanted into lethally irradiated CD45.2 mice. After 16 hours, femurs and tibias were flushed, and a proportion of mouse marrow Lin^+ cells depleted using MACS microbeads (Miltenyi Biotech), stained with fluorochrome-conjugated-antibodies specific for biotin (lineage), c-kit (K), and Sca-1 (S) and the total number of CFSE^+ WBM (non lineage depleted), KL and SKL cells determined. For congenic homing studies, Lin^neg CD45.1 cells were treated on ice with 1 microMolar dmPGE2, vehicle, or PBS. After incubation, cells were washed and 2×10^6 cells transplanted into CD45.2 mice. After 16 hours, recipient bone marrow was harvested, lineage depleted, stained, and donor CD45.1 SKL cells determined. For competitive, head-to-head homing studies using sorted SKL cells, Lin^neg cells from CD45.2 and CD45.1 mice were FACS sorted, cells treated with either dmPGE2 or vehicle for 2 hours, washed and 3×10^4 CD45.1 (vehicle or dmPGE2 treated) plus 3×10^4 CD45.2 (dmPGE2 or vehicle treated) SKL cells transplanted into lethally irradiated F1 Hybrid mice. To evaluate the role of CXCR4 in homing studies, Lin^neg CD45.2 cells were treated on ice with vehicle or 1 microMolar dmPGE2 plus 10 microMolar AMD3100 (AnorMed Inc., Vancouver, BC, Canada) and 2×10^6 treated cells injected into lethally irradiated CD45.1 mice. Homed SKL cells were analyzed 16 hours post-transplant.
Irrespective of its cause a marrow niche is required for HSPC to self-renew and differentiate and it is very likely that only HSPC homing to these niches can provide long-term repopulation. Referring now to FIG. 3A, in order to assess HSPC homing, CFSE labeled whole bone marrow (WBM) CD45.2 cells were pulsed with dmPGE2 or vehicle for 2 hours on ice, washed and injected IV in lethally irradiated CD45.2 hosts. After 16 hours, total CFSE^+ cells homing to bone marrow as well as the number of homed events within the KL and SKL cell populations were quantified.
Highly purified SKL cells from both CD45.2 and CD45.1 mice were isolated by FACS sorting, treated with dmPGE2 or vehicle, and 3×10^4 vehicle-treated CD45.1 cells plus 3×10^4 dmPGE2-treated CD45.2 cells transplanted into CD45.1/CD45.2 mice. An additional cohort was concurrently transplanted with congenic strain and treatment groups were switched to test for any bias in strain homing. […] Although SKL cells are not a homogenous HSPC population, they are highly enriched for LTRC (Okada et al., 1992; Spangrude and Scollay, 1990).
To evaluate the role of CXCR4 in homing, Lineage^neg CD45.2 cells were treated with vehicle or 1 microMolardmPGE2 plus 10 microMolar AMD3100, 2×10^6 treated cells injected into lethally-irradiated CD45.1 mice and homed SKL cells recovered 16 hours post-transplant and analyzed by FACS. Referring now to FIG. 11, homing efficiency of vehicle and dmPGE2 treated cells to bone marrow in the absence and presence of 10 microMolar AMD3100. Cells were incubated with AMD3100 for 30 minutes prior to the homing assay.

SMILES	increase in the number of mobilized progenitor cells (CFU-GM) (CFU-GM; 150 μg/kg SC once daily for 4 days, alone) [fold]	HSPC (CFU-GM) mobilization in combination with AMD3100 (CFU-GM; 50 microgram per mouse bid SC 4 days, AMD3100 5 mg/kg day 5)	CFU-GM / peripheral blood stem cell mobilization with G-CSF (CFU-GM)	CFU-GM / peripheral blood stem cell mobilization with G-CSF (CFU-GM; listed as Indomethacin)	engraftment (competitive repopulating units) of mobilized PBMC (mobilized PBMC)	baseline CFU-GM mobilization (CFU-GM; 150 μg/kg SC, alone)	effect of CXCR4 antagonist on SKL cell homing and on PGE2-enhanced homing (SKL cells)
COc1ccc2c(c1)c(CC(=O)O)c(C)n2C(=O)c1ccc(Cl)cc1 [indomethacin, 2-{1-[(4-chlorophenyl)carbonyl]-5-methoxy-2-methyl-1H-indol-3-yl}acetic acid]	4	Mobilizes HSPC	highly synergistic increase; also recorded: larger fold increase	synergistically mobilize; also recorded: synergistic effect	no improvement in engraftment		
O=c1cc(-c2ccccc2)oc2cc(O)c(O)c(O)c12 [baicalein]			no effect			no effect	
c1cc(CN2CCCNCCNCCCNCC2)ccc1CN1CCCNCCNCCCNCC1 [AMD3100, 1,1′-[1,4-Phenylenebis(methylene)]bis[1,4,8,11-tetraazacyclotetradecane]octohydrobromide dihydrate]							reduced SKL cell homing and abrogated the improved homing efficiency; also recorded: significantly reduced

Source: patent publication US9107909B2, “Materials and methods to enhance hematopoietic stem cells engraftment procedures” (priority 2008, dated 2015)
